From PMC11822212, “High-throughput screening identifies Aurora kinase B as a critical therapeutic target for Merkel cell carcinoma” (Nature Communications, 2025)
Several values for one entry are separate records, joined by “and”; a condition that tells them apart may be missing. Equal entries are not always repeated. Where two headings read alike, the source gives them in different places.

Key:
Assay in all cases: qHTS cell viability (CellTiter-Glo, 72 h; primary and follow-up small molecule screen)
Format in all cases: cell-based, human
[1] = tested on: MCC13 cells (VN-MCC)
[2] = tested on: MKL-1 cells (VP-MCC)
[3] = tested on: MKL-2 cells (VP-MCC)
[4] = tested on: WAGA cells (VP-MCC)
[5] = tested on: MCC26 cells (VN-MCC)
[6] = tested on: UISO cells (VN-MCC)

Structure (SMILES)	Area under the dose-response curve (AUC) MCC13 Replicate 1 [1]	Area under the dose-response curve (AUC) MCC13 Replicate 2 [1]	Area under the dose-response curve (AUC) MCC13 Replicate 3 [1]	Area under the dose-response curve (AUC) MKL-1 Replicate 1 [2]	Area under the dose-response curve (AUC) MKL-1 Replicate 2 [2]	Area under the dose-response curve (AUC) MKL-1 Replicate 3 [2]	Area under the dose-response curve (AUC) MKL-2 Replicate 1 [3]	Area under the dose-response curve (AUC) MKL-2 Replicate 2 [3]	Area under the dose-response curve (AUC) MKL-2 Replicate 3 [3]	Area under the dose-response curve (AUC) WAGA Replicate 1 [4]	Area under the dose-response curve (AUC) WAGA Replicate 2 [4]	Area under the dose-response curve (AUC) WAGA Replicate 3 [4]	Area under the dose-response curve (AUC) MCC26 Replicate 1 [5]	Area under the dose-response curve (AUC) MCC26 Replicate 2 [5]	Area under the dose-response curve (AUC) MCC26 Replicate 3 [5]	Area under the dose-response curve (AUC) UISO Replicate 1 [6]	Area under the dose-response curve (AUC) UISO Replicate 2 [6]	Area under the dose-response curve (AUC) UISO Replicate 3 [6]	other results
Fc1ccc2[nH]ccc2c1-c1nc(N2CCOCC2)c2sc(CN3CCN(CC4CC4)CC3)cc2n1 [PI-3065]	–	–	–	–	–	–	–	–	–	–	–	–	–	–	–	–	–	–	Area under the dose-response curve (AUC) [1]: 491.4 and 471.7 and 470.9; Area under the dose-response curve (AUC) [2]: 492.3 and 479.8 and 465.2; Area under the dose-response curve (AUC) [3]: 468.3 and 439.3 and 471.2; Area under the dose-response curve (AUC) [4]: 514.3 and 478.8 and 484.1; Area under the dose-response curve (AUC) [5]: 439.2 and 434.6 and 464.1; Area under the dose-response curve (AUC) [6]: 477.0 and 474.8 and 437.8
O[C@H]1[C@H]2[C@H](O)CCCN2C[C@H]1O [Swainsonine]	474.5	467.6	453.7	483.5	459.4	455.2	462.0	456.2	445.8	517.4	504.3	463.6	425.6	420.4	449.5	446.0	458.3	417.9	–
COc1cccc2c1C(=O)c1c(O)c3c(c(O)c1C2=O)C[C@@](O)(C(C)=O)C[C@@H]3O[C@H]1C[C@H](N)[C@H](O)[C@H](C)O1 [Daunorubicin]	326.2	316.0	313.0	228.6	217.7	240.0	202.9	215.3	253.2	254.8	263.7	266.2	309.1	298.6	273.9	226.5	238.3	225.1	–
O=c1c(O)c(-c2ccccc2)oc2cc(O)cc(O)c12 [GALANGIN]	–	–	–	–	–	–	–	–	–	–	–	–	–	–	–	–	–	–	Area under the dose-response curve (AUC) MCC13 Replicate 1 ([1]; follow-up screen, MCC13, replicate 1): 501.1; Area under the dose-response curve (AUC) MCC13 Replicate 2 ([1]; follow-up screen, MCC13, replicate 2): 489.1; Area under the dose-response curve (AUC) MCC13 Replicate 3 ([1]; follow-up screen, MCC13, replicate 3): 476.8; Area under the dose-response curve (AUC) MKL-1 Replicate 1 ([2]; follow-up screen, MKL-1, replicate 1): 418.0; Area under the dose-response curve (AUC) MKL-1 Replicate 2 ([2]; follow-up screen, MKL-1, replicate 2): 452.0; Area under the dose-response curve (AUC) MKL-1 Replicate 3 ([2]; follow-up screen, MKL-1, replicate 3): 473.1; Area under the dose-response curve (AUC) MKL-2 Replicate 1 ([3]; follow-up screen, MKL-2, replicate 1): 358.3; Area under the dose-response curve (AUC) MKL-2 Replicate 2 ([3]; follow-up screen, MKL-2, replicate 2): 486.3; Area under the dose-response curve (AUC) MKL-2 Replicate 3 ([3]; follow-up screen, MKL-2, replicate 3): 480.7; Area under the dose-response curve (AUC) WAGA Replicate 1 ([4]; follow-up screen, WAGA, replicate 1): 517.0; Area under the dose-response curve (AUC) WAGA Replicate 2 ([4]; follow-up screen, WAGA, replicate 2): 423.5; Area under the dose-response curve (AUC) WAGA Replicate 3 ([4]; follow-up screen, WAGA, replicate 3): 495.5; Area under the dose-response curve (AUC) MCC26 Replicate 1 ([5]; follow-up screen, MCC26, replicate 1): 408.8; Area under the dose-response curve (AUC) MCC26 Replicate 2 ([5]; follow-up screen, MCC26, replicate 2): 418.1; Area under the dose-response curve (AUC) MCC26 Replicate 3 ([5]; follow-up screen, MCC26, replicate 3): 468.3; Area under the dose-response curve (AUC) UISO Replicate 1 ([6]; follow-up screen, UISO, replicate 1): 448.5; Area under the dose-response curve (AUC) UISO Replicate 2 ([6]; follow-up screen, UISO, replicate 2): 479.0; Area under the dose-response curve (AUC) UISO Replicate 3 ([6]; follow-up screen, UISO, replicate 3): 418.3
CC(/C=C/C(=O)NO)=C\[C@@H](C)C(=O)c1ccc(N(C)C)cc1 [TSA]	419.6	438.9	399.7	401.2	324.1	329.2	276.9	277.0	326.7	341.0	323.1	341.7	375.6	383.1	360.2	357.7	378.3	338.8	–
